Reference: ChEMBL document CHEMBL1201862, “PubChem BioAssay data set” (2004)
Calls of active or inactive are those of the source.

Assays:
[1] = A375 melanoma cell cytotoxicity, dose response, counter-screen for MITF inhibitor project, CellTiter-Glo luminescence, dry powder, set 2 (AID 624489); type: functional, cell-based; conditions: A-375;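 also: actives are compounds lowering A375 viability meaning general cytotoxicity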
[2] = A375 melanoma cell viability loss, dose response, counter-screen for MITF inhibitor project, CellTiter-Glo luminescence, dry powder, set 4 (AID 624364); type: functional, cell-based; conditions: A-375;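 also: A375 melanoma cells are MITF independent so this is a counter screen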
[3] = molecular target: T1, Sentrin-specific protease 7 (Homo sapiens, UniProt Q9BQF6); type: functional;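 also: Luminescence-based dose-response confirmation of ultra-high-throughput screening hits, measuring inhibition of SENP7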
T1 sequence (Q9BQF6 whole entry): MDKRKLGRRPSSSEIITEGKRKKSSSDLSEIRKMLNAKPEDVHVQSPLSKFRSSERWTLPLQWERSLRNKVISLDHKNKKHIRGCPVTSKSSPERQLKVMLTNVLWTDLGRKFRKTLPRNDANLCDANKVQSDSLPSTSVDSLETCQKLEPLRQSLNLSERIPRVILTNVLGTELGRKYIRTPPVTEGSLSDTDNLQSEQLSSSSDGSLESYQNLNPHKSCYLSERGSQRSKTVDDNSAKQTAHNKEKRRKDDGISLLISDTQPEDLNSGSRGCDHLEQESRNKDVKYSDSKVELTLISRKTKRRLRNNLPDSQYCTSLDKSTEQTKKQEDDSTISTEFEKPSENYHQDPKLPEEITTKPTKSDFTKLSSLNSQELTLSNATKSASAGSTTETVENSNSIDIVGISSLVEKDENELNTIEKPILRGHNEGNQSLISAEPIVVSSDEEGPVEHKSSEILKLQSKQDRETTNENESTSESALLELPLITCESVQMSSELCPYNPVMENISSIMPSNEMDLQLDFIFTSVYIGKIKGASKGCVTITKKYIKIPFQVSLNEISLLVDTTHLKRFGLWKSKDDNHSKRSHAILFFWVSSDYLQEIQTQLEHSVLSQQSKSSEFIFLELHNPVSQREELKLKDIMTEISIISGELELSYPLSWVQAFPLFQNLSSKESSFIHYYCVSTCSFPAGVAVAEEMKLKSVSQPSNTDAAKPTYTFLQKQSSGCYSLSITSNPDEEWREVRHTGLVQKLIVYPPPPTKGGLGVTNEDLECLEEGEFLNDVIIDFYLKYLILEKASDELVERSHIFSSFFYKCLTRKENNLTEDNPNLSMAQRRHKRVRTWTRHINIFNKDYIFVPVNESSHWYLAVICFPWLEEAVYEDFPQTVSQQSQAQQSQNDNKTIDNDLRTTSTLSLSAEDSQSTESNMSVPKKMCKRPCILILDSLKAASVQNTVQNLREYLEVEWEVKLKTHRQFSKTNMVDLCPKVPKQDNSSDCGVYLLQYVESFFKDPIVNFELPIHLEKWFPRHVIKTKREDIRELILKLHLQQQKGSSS

[4] = molecular target: Heat shock protein HSP 90-alpha (Homo sapiens, UniProt P07900); type: functional, organism-based
[5] = system: HEK293; assay: Fluorescence-based counterscreen for potentiators or agonists of NPY-Y2: cell-based high-throughput dose response assay to identify inhibitors of cyclic nucleotide gated ion channel (CNGC) activity. In this assay, the parental HEK293 cell line transfected with a cyclic-nucleotide gated ion channel (CNGC)-based cAMP sensor is used to measure inhibition of isoproterenol-induced CNGC activity by test compound.; type: functional; conditions: Homo sapiens;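 also: stimulus is 1 µM isoproterenol at EC100 plus PDE inhibitor Ro 20-1724 at 25 µM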
[6] = molecular target: T2, Heat shock factor protein 1 (Mus musculus, UniProt P38532); assay: HSF1 potentiators in luciferase reporter cells, confirmation, cell-based, NIH3T3, luminescence, dose retest (AID 435004); type: functional;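 also: stress induced by proteasome inhibitor MG132 added 30 min after compound; luciferase reporter driven by HSF1 response element in NIH3T3 cells; actives raise luminescence as potentiators of the MG132 stress response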
T2 sequence (P38532 whole entry): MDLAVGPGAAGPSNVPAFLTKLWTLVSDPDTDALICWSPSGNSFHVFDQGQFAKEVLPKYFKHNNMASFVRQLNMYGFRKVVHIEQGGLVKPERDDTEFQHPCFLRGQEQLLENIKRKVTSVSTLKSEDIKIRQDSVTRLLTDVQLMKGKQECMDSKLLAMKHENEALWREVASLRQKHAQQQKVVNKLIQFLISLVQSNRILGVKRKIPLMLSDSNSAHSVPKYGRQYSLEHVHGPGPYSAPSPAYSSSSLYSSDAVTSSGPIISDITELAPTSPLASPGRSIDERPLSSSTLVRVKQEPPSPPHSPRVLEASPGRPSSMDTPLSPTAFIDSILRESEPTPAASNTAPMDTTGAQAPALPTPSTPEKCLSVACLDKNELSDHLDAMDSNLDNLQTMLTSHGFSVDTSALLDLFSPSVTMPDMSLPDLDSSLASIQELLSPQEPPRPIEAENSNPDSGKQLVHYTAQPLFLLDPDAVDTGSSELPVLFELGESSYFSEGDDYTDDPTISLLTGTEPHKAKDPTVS

[7] = molecular target: Cystic fibrosis transmembrane conductance regulator/Golgi-associated PDZ and coiled-coil motif-containing protein (Homo sapiens, UniProt P13569+Q9HD26); assay: CAL PDZ peptide-binding inhibitors, dose response, biochemical, fluorescence polarization, Cerulean-tagged CAL PDZ, cherry-picks (AID 504773)
Cystic fibrosis transmembrane conductance regulator/Golgi-associated PDZ and coiled-coil motif-containing protein, sequence (P13569 whole entry, other chains not shown): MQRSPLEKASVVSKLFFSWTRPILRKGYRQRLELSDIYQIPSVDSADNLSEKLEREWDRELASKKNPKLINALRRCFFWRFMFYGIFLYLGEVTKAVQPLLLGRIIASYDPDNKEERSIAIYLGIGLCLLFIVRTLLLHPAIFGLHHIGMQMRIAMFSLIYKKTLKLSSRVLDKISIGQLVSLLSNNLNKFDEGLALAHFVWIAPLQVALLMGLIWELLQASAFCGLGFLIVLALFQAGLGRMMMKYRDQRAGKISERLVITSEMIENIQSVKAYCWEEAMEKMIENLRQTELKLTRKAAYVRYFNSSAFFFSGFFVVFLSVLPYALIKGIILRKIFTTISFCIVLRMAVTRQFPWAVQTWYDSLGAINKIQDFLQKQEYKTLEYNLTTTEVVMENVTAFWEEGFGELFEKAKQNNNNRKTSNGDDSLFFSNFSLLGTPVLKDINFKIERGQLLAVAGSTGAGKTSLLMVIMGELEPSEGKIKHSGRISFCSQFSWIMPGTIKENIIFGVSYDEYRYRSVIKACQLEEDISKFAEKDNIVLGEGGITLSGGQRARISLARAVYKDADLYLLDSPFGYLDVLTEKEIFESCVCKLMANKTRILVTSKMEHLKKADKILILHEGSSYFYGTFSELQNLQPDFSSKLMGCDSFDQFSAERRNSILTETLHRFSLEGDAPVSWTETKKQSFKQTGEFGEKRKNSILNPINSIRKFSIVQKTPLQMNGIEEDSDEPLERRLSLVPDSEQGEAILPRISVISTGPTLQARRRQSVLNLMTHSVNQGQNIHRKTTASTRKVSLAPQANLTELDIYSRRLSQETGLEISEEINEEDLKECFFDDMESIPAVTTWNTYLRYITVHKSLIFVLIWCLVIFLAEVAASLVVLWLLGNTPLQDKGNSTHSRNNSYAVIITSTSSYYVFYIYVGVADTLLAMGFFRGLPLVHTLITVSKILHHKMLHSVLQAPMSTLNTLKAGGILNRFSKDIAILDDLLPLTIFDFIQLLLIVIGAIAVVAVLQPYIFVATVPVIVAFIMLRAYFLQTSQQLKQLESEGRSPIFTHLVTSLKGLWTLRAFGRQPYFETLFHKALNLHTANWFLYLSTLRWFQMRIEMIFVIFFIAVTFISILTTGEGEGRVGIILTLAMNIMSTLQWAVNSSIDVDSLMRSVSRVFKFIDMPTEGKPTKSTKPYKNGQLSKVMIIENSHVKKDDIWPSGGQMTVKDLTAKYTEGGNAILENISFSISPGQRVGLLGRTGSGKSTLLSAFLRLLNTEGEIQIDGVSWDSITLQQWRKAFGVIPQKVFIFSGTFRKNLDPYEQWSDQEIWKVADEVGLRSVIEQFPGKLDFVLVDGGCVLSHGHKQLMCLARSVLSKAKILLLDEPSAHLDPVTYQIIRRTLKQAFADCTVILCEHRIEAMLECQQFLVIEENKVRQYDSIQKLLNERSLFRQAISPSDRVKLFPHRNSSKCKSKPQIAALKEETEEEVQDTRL

[8] = molecular target: T3, Sphingosine 1-phosphate receptor 4 (Homo sapiens, UniProt O95977); assay: Late stage fluorescence dose response cell-based screening assay for antagonists of the Sphingosine 1-Phosphate Receptor 4 (S1P4). [Related pubchem assays: 1524 (Confirmation screen (S1P4 antagonists).), 1510 (Primary screen (S1P4 antagonists).), 1853 (Summary AID (S1P4 antagonists).), 1692 (Dose response screen (S1P4 antagonists).)]; type: functional
T3 sequence (O95977 whole entry): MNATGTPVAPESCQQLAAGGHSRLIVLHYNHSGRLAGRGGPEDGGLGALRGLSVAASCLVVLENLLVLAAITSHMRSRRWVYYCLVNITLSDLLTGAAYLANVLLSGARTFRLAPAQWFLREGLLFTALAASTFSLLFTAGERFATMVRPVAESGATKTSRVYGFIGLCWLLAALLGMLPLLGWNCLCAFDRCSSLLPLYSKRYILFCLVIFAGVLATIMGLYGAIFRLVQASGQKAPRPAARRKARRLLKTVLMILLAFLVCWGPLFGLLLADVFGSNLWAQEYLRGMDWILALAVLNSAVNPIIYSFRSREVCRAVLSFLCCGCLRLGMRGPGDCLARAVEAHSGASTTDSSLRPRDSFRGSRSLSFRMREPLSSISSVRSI

With `O=C(CNc1cccc2ccccc12)N/N=C/c1ccc([N+](=O)[O-])o1` the AC50 [1] was > 70 µM (inactive) and the AC50 [2] was > 70 µM (inactive).
With `O=C1NC(=S)N/C1=C/c1cc2c(cc1[N+](=O)[O-])OCO2` the IC50 [3] was 25.4 µM (active).
With `O=C(CC(O)(C(F)(F)F)C(F)(F)F)Nc1ccc(Cl)c(Cl)c1` the AC50 [4] was 16.8 µM (active) and the EC50 [5] was > 35.4 µM (not active).
For `O=C(O)CSc1cc(NS(=O)(=O)c2ccc(Br)cc2)c2ccccc2c1O`, the EC50 [6] was > 260 µM (inactive) and the AC50 [7] was 28.4 µM (active).
For `Cc1ccc(NC(=O)C2=C(c3ccccc3)S(=O)(=O)CCS2(=O)=O)cc1`, the IC50 [8] was 3.72 µM (not active).
